Measured values reported in patent US6218380A, “Pharmaceutical compositions” (SmithKline Beecham p.l.c., priority 1991, dated 2001).
Structures can show the parent of a compound that is named as a salt. Each block holds one molecule with its values, some of them ahead of it.

What was measured:
[1] = tested on: strains of Klebsiella aerogenes A; assay: Growth inhibition, penicillins with synergist (description); assay type: cell-based
[2] = Blood and tissue levels in female mice; assay type: in vivo; conditions: oral administration of 100 mg/kg of the sodium salt
[3] = tested on: Staphylococcus aureus; assay: Antibacterial synergism, microtitre MIC (Example 42); assay type: cell-based; conditions: method of Example 42
[4] = tested on: strains of Staphylococcus aureus; assay: Growth inhibition (properties of clavulanic acid); assay type: cell-based
[5] = tested on: β-lactamase producing strains of Escherichia coli, Klebsiella aerogenes and Staphylococcus aureus; assay: Synergism with ampicillin (properties of clavulanic acid); assay type: cell-based
[6] = tested on: β-lactamase producing strains of Proteus mirabilis and Staphylococcus aureus; assay: Synergism with cephaloridine (properties of clavulanic acid); assay type: cell-based
[7] = tested on: Klebsiella aerogenes A; assay: Antibacterial synergism, microtitre MIC (Example 42); assay type: cell-based; conditions: method of Example 42; unit not given
[8] = tested on: Klebsiella aerogenes E 70; assay: as above; assay type: cell-based; conditions: method of Example 42; unit not given
[9] = tested on: Klebsiella aerogenes 62; assay: as above; assay type: cell-based; conditions: method of Example 42; unit not given
[10] = tested on: Staphylococcus aureus (Russell); assay: M.I.C. with clavulanic acid methyl ester (Example 32); assay type: cell-based
[11] = tested on: Proteus mirabilis C889; assay: as above; assay type: cell-based
[12] = Hydrolysis of ester to clavulanic acid in pH 7 buffer; assay type: physicochemical; conditions: water buffered to pH7
Description: The reaction was followed by paper chromatography (bioautographic system). Using the butanol/ethanol/water system to follow the reaction over a period of 2 hours the zone of the methyl ester of Rf 0.79 decreased in size as the zone of clavulanic acid at Rf 0.12 increased.

Structure (SMILES): CC1(C)S[C@@H]2[C@H](NC(=O)Cc3ccccc3)C(=O)N2[C@H]1C(=O)O [Benzylpenicillin, benzylpenicillin]
Concentration of penicillin that inhibits growth when 5 μg/ml. of clavulanic acid is also present [1]: less than 12.5 μg/ml

Structure (SMILES): O=C(O)[C@H]1/C(=C/CO)O[C@@H]2CC(=O)N21 [clavulanic acid sodium salt, 3-(β-hydroxyethylidine)-7-oxo-4-oxa-1-azabicyclo[3,2,0]heptane-2-carboxylic acid sodium salt]
Levels of clavulanic acid [2]: useful levels

Structure (SMILES): O=C(Cc1cccs1)N[C@@H]1C(=O)N2C(C(=O)[O-])=C(C[n+]3ccccc3)CS[C@H]12 [Cephaloridine, cephaloridine]
Minimum Inhibitory Concentrations, cephaloridine in presence of 5 μg/ml clavulanic acid sodium salt [3]: 3.7 µg/mL

Structure (SMILES): O=C(O)[C@H]1/C(=C/CO)O[C@@H]2CC(=O)N21 [clavulanic acid, Z-(2R,5R)-3-(β-hydroxyethylidene)-7-oxo-4-oxa-1-azabicyclo[3,2,0]heptane-2-carboxylic acid]
Inhibition of growth of strains of Staphylococcus aureus [4]: able to inhibit the growth
Synergism of the antibacterial effect of ampicillin [5]: able to synergise the antibacterial effect of ampicillin
Synergism of the antibacterial effect of cephaloridine [6]: able to synergise the antibacterial effect of cephaloridine

MIC of Ampicillin + 5 μg/ml of Benzyl Ester of clavulanic acid [7]: 1.9
MIC of Ampicillin + 5 μg/ml of Methyl Ester of clavulanic acid [7]: 1.9
MIC of Ampicillin + 5 μg/ml of Benzyl Ester of clavulanic acid [8]: 3.9
MIC of Ampicillin + 5 μg/ml of Methyl Ester of clavulanic acid [8]: 3.9
MIC of Ampicillin + 5 μg/ml of Benzyl Ester of clavulanic acid [9]: 3.9
MIC of Ampicillin + 5 μg/ml of Methyl Ester of clavulanic acid [9]: 3.9
Structure (SMILES): CC1(C)S[C@@H]2[C@H](NC(=O)[C@H](N)c3ccccc3)C(=O)N2[C@H]1C(=O)O [Ampicillin, ampicillin]
M.I.C. of antibiotic in the presence of 1.0 μg/ml. clavulanic acid methyl ester [10]: < 0.4 µg/mL
M.I.C. for ampicillin in the presence of 5 μg/ml. clavulanic acid methyl ester [11]: 31 µg/mL

Hydrolysis to clavulanic acid [12]: slowly hydrolyse to clavulanic acid
Structure (SMILES): COC(=O)[C@H]1/C(=C/CO)O[C@@H]2CC(=O)N21 [clavulanic acid methyl ester]
